In BindingDB's records for patent US20240140962 (Medshine Discovery, 2024):

Biological target: Serine/threonine-protein kinase PLK1 (Homo sapiens, UniProt P53350)
Assay: Evaluation of PLK1 Kinase Activity In Vitro
Procedure: The 33P isotope-labeled kinase activity assay (Reaction Biology Corp) was used to determine the IC50 value to evaluate the inhibitory ability of the test compound to human PLK1 protein kinase.Buffer conditions: 20 mM HEPES (pH 7.5), 10 mM MgCl2, 1 mM EGTA, 0.01% Brij35, 0.02 mg/ml BSA, 0.1 mM Na3VO4, 2 mM DTT, 1% DMSOTest steps: At room temperature, the compounds to be tested were dissolved in DMSO to prepare a 10 mM solution for use. The substrate Casein was dissolved in a freshly prepared buffer (with a final concentration of 20 μM), and the tested PLK1 kinase (with a final concentration of 12 nM) was added thereto and mixed well. The acoustic wave pipetting system Echo 550 was used to add the mother solution of the test compound dissolved in DMSO to the above mixed reaction mixture according to the set final concentration gradient (the highest final concentration was 1 μM, 3-fold dilution, 10 gradients). After incubation at room temperature for 20 minutes, 33P-ATP (30 μM) was added, and after incubation at room temperature for 120 minutes, the reaction mixture was spotted on P81 ion exchange filter paper (Whatman #3698-915). After the filter paper was repeatedly washed with 0.75% phosphoric acid solution, the radioactivity of the phosphorylated substrate remaining on the filter paper was measured.

Sequence of Serine/threonine-protein kinase PLK1 (P53350 whole entry): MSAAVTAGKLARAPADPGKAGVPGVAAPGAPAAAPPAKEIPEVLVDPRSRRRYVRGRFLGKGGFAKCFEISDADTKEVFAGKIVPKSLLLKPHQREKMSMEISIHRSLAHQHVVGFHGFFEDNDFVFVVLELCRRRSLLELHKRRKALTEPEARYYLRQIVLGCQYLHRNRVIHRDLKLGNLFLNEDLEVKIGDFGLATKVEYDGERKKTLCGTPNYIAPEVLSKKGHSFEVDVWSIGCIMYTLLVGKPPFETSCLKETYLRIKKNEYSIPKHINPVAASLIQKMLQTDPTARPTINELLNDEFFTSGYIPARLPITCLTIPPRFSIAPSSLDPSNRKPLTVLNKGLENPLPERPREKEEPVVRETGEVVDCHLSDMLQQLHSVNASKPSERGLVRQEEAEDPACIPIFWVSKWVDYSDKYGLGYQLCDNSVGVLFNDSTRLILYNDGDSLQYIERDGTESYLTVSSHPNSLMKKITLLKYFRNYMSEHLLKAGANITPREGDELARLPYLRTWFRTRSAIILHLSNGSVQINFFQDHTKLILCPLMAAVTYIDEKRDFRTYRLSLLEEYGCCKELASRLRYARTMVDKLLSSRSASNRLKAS

Row | SMILES | IC50
1 | COc1nnc(N2CCN(C)CC2)cc1Nc1ncc2c(n1)-c1c(SC)sc(C(N)=O)c1CC2 [US20240140962, Compound 17] | 5.9 nM
2 | CSc1sc(C(N)=O)c2c1-c1nc(Nc3cc(N4CCN(CCO)CC4)ccc3OC(F)(F)F)ncc1CC2 [US20240140962, Compound 8] | 1.7 nM
3 | CCOc1sc(C(N)=O)c2c1-c1nc(Nc3cc(N4CCN(C)CC4)ccc3OC(F)(F)F)ncc1CC2 [US20240140962, Compound 2] | 4.2 nM
4 | CSc1sc(C(N)=O)c2c1-c1nc(Nc3cc(N4CCN(C)CC4)ccc3OC(F)(F)F)ncc1CC2 [US20240140962, Compound 1] | 4.4 nM
5 | CN1CCN(c2ccc(OC(F)(F)F)c(Nc3ncc4c(n3)-c3c(C5CC5)sc(C(N)=O)c3CC4)c2)CC1 [US20240140962, Compound 16] | 5.3 nM
6 | CSc1sc(C(N)=O)c2c1-c1nc(Nc3cc(N4CCNCC4)ccc3OC(F)(F)F)ncc1CC2 [US20240140962, Compound 7] | 3 nM
7 | CN1CCN(c2ccc(OC(F)(F)F)c(Nc3ncc4c(n3)-c3csc(C(N)=O)c3CC4)c2)CC1 [US20240140962, Compound 12] | 4 nM
8 | CN1CCN(c2ccc(OC(F)(F)F)c(Nc3ncc4c(n3)-c3c(-c5ccco5)sc(C(N)=O)c3CC4)c2)CC1 [US20240140962, Compound 20] | 2.8 nM
